Key:
[1] = system: ADP induced platelet aggregation; test: Inhibition of ADP-induced platelet aggregation (procedure of Born and Cross); assay type: cell-based; settings: for inhibition at 10 µg/mL: read-out: Inhibition of Platelet Aggregation 10 ug/ml; for inhibition at 30 µg/mL: read-out: Inhibition of Platelet Aggregation 30 ug/ml
Protocol: Most compounds of Formula I are active as inhibitors of platelet aggregation as shown in Table 1 by the test procedure described in Born, G.R., Cross M.J., J. Physiol., 168, p. 178 (1963).
Also, reported is the percent inhibition of platelet aggregation at 10ug/ml and 30 ug/ml concentrations.

fibroblasts = test: Antiproliferative assay (inhibition of cell proliferation, procedure of Pledger et al.); assay type: cell-based; settings: for EC50: Fibroblast; for Antiproliferative Assay Data Inhibition (%): percent inhibition at the maximum concentration tested
Source text: The compounds of Formula I are active as inhibitors of cell proliferation as shown in Table 1 by the test procedure described in Pledger W.J., Stiles C.D., Antniades H.N., Scher C.D., (Proc. Natl. Acad. Sci (USA) (1977). In addition, various compounds of Formula I are also inhibitors of ADP induced platelet aggregation and are useful in the prevention or treatment of thrombotic diseases and related complications by, for example, inhibition or reversal of platelet aggregation, or platelet adhesion or blood coagulation. […]

Structure (SMILES) | inhibition at 10 µg/mL [1] | inhibition at 30 µg/mL [1] | EC50 (fibroblasts) | Antiproliferative Assay Data Inhibition (%) (fibroblasts) | antiproliferation or inhibition activity (in words) (fibroblasts)
O=c1cc(-c2ccc(O)cc2)oc(N2CCOCC2)c1 [Compound 1, 2-(4-Hydroxyphenyl)-6-(4-morpholinyl)-4H-pyran-4-one] | 75% | 95% | 29.4 µM | 54% | –
O=c1cc(-c2ccc(OCc3ccccc3)cc2)oc(N2CCOCC2)c1 [Compound 2] | 10% | 15% | 6.9 µM | – | –
O=c1cc(-c2ccccc2)oc(N2CCOCC2)c1 [Compound 3, 2-(4-Morpholinyl)-6-phenyl-4H-pyran-4-one] | 45% | 50% | 28 µM | – | –
CC(C)(C)C(=O)COc1ccc(-c2cc(=O)cc(N3CCOCC3)o2)cc1 [Compound 4, 2-(4-(3,3-Dimethyl-2-oxobutoxy)phenyl)-6-(4-morpholinyl)-4H-pyran-4-one] | 45% | 60% | 9.4 µM | 66% | –
O=c1cc(-c2ccc(OCc3cccnc3)cc2)oc(N2CCOCC2)c1 [Compound 5, 2-(4-Morpholinyl)-6-(4-(3-pyridinylmethoxy)phenyl)-4H-pyran-4-one] | 40% | 55% | 11.2 µM | 77% | –
O=c1cc(-c2ccc(OCc3ccccn3)cc2)oc(N2CCOCC2)c1 [Compound 6, 2-(4-Morpholinyl)-6-(4-(2-pyridinylmethoxy)phenyl)-4H-pyran-one] | 25% | 40% | 14.8 µM | 72% | –
O=c1cc(-c2ccc(OCCN3CCCCC3)cc2)oc(N2CCOCC2)c1 [Compound 7, 2-(4-Morpholinyl)-6-((4-(2-(1-piperidinyl)ethyl)oxy)phenyl)-4H-pyran-4-one] | 60% | 70% | > 31.2 µM | 30% | –
O=c1cc(-c2ccc(OCc3ccc4ccccc4n3)cc2)oc(N2CCOCC2)c1 [Compound 8, 2-(4-Morpholinyl)-6-(4-(2-quinolinylmethoxy)phenyl)-4H-pyran-4-one] | 35% | 35% | 6.8 µM | – | –
O=c1cc(-c2ccccc2OCc2ccccc2)oc(N2CCOCC2)c1 [Compound 9, 2-(4-Morpholinyl)-6-(2-(phenylmethoxy)phenyl)-4H-pyran-4-one] | 60% | 65% | 11.6 µM | 88% | –
O=c1cc(-c2ccccc2O)oc(N2CCOCC2)c1 [Compound 10, 2-(2-Hydroxyphenyl)-6-(4-morpholinyl)-4H-pyran-4-one] | – | – | 62.2 µM | 34% | –
CCCCC(Oc1ccc(-c2cc(=O)cc(N3CCOCC3)o2)cc1)c1ccccc1 (stereo not shown) [Compound 11, 2-(4-Morpholinyl)-6-(4-((1-phenylpentyl)oxy)phenyl)-4H-pyran-4-one] | 10% | 10% | 22.9 µM | – | –
O=c1cc(CN2CCOCC2)oc(-c2ccc(OCc3ccccc3)cc2)c1 [Compound 12] | 0% | 0% | 41 µM | 36% | –
O=c1cc(CN2CCCCC2)oc(-c2ccc(OCc3ccccc3)cc2)c1 [Compound 13] | 0% | 0% | – | 20% | –
O=c1cc(CN2CCOCC2)oc(-c2ccc(O)cc2)c1 [Compound 14, 2-(4-hydroxyphenyl)-6-(4-morpholinylmethyl)-4H-pyran-4-one] | 0% | 0% | – | 0% | no measurable antiproliferation or inhibition activity
O=c1cc(-c2cccc(OCc3ccccc3)c2)oc(N2CCOCC2)c1 [Compound 15, 2-(4-morpholinyl)-6-(3-(phenylmethoxy)phenyl)-4H-pyran-4-one] | 0% | 0% | 9.1 µM | 96% | –
O=c1cc(-c2cccc(O)c2)oc(N2CCOCC2)c1 [Compound 16, 2-(3-hydroxyphenyl)-6-(4-morpholinyl)-4H-pyran-4-one] | 5% | 44% | 28.5 µM | 73% | –
O=c1cc(-c2ccc(CO)cc2)oc(N2CCOCC2)c1 [Compound 17, 2-(4-(hydroxymethyl)phenyl)-6-(4-morpholinyl)-4H-pyran-4-one] | 0% | 0% | – | 20% | –
O=c1cc(-c2ccc(CN3CCCCC3)cc2)oc(N2CCOCC2)c1 [Compound 18, 2-(4-morpholinyl)-6-(4-(1-piperidinylmethyl)phenyl)-4H-pyran-4-one] | 10% | 18% | – | 8% | –
O=c1cc(-c2ccc(CN3CCCC3)cc2)oc(N2CCOCC2)c1 [Compound 19, 2-(4-morpholinyl)-6-(4-(1-pyrrolidinylmethyl)phenyl)-4H-pyran-4-one] | 5% | 10% | – | 12% | –
CN1CCN(Cc2ccc(-c3cc(=O)cc(N4CCOCC4)o3)cc2)CC1 [Compound 20, 2-(4-((4-methyl-1-piperazinyl)methyl)phenyl)-6-(4-morpholinyl)-4H-pyran-4-one] | 0% | 20% | – | 9% | –
O=c1cc(-c2ccc(CN3CCCCC3CO)cc2)oc(N2CCOCC2)c1 (stereo not shown) [Compound 21, 2-(4-((2-(hydroxymethyl)-1-piperidinyl)methyl)phenyl)-6-(4-morpholinyl)-4H-pyran-4-one] | 10% | 10% | – | 13% | –
O=c1cc(-c2ccc(F)cc2)oc(N2CCOCC2)c1 [Compound 22, 2-(4-Fluorophenyl)-6-(4-morpholinyl)-4H-pyran-4-one] | 42% | 61% | > 20 µM | 25% | –
O=c1cc(-c2ccc(N3CCCC3)cc2)oc(N2CCOCC2)c1 [Compound 23, 2-(4-Morpholinyl)-6-4-(1-pyrrolidinyl)phenyl-4H-pyran-4-one] | 20% | 50% | 0.25 µM | – | –
O=c1cc(-c2ccc(N3CCCCC3)cc2)oc(N2CCOCC2)c1 [Compound 24, 2-(4-Morpholinyl)-6-4-(1-piperidinyl)phenyl-4H-pyran-4-one] | 10% | 50% | 0.48 µM | – | –
Nc1ccc(-c2cc(=O)cc(N3CCOCC3)o2)cc1 [Compound 25, 2-(4-Aminophenyl)-6-(4-morpholinyl)-4H-pyran-4-one] | 45% | 55% | 18.7 µM | – | –

— patent publication EP0489877B1, “ANTIATHEROSCLEROTIC AND ANTITHROMBOTIC 2-AMINO-6-PHENYL-4H-PYRAN-4-ONES” (THE UPJOHN COMPANY, priority 1990, dated 1992)
